{
  "source": "paper PMC7725824",
  "about": "“Fused isoselenazolium salts suppress breast cancer cell growth by dramatic increase in pyruvate-dependent mitochondrial ROS production” (Scientific Reports, 2020)",
  "key": {"MCF-7": {"test_system": "MCF-7", "test": "Cytotoxicity assay (MTT), MCF-7", "assay_type": "cell-based, human", "conditions": "Homo sapiens, MCF7; breast cancer cell line; MTT, 48 h; mean ± S.D., 3 experiments; read-out: Cytotoxicity, IC50, MCF-7", "protocol": "(§1) MCF-7 (human breast adenocarcinoma, estrogen-positive) and 4T1 (mouse carcinoma), as breast cancer cell lines, and H9C2 (rat cardiomyoblasts), NIH 3T3 (mouse fibroblasts), HEKa (primary human epidermal keratinocytes), MDCK (Madin-Darby Canine Kidney) cells, and A7r5 (rat vascular smooth muscle cells), as normal cell lines, were obtained from the American Type Culture Collection [ATCC] collection for use in the current study. All cell lines were cultured in Dulbecco's modified Eagle's medium (DMEM) containing 10% fetal bovine serum (FBS) and 4 mM L-glutamine at 37 °C and 5% CO2.\n(§2) Cell viability was assessed by the addition of 3-(4,5-dimethylthiazol-2-yl)-2,5-diphenyltetrazolinium bromide (MTT). Briefly, cells were seeded (2–6 × 10^4 cells/ml) in 96-well plates and allowed to attach for 24 h. Solutions of test compounds were prepared and serially diluted to obtain the appropriate concentrations. The cells were treated with the test compounds at different concentrations (0.032–100 µM) and incubated for 48 h at 37 °C and 5% CO2. Then, the culture medium was removed, and medium containing 0.2 mg/ml MTT was added. After 3 h (37 °C, 5% CO2), the MTT-containing medium was removed, and 200 μl of dimethyl sulfoxide (DMSO) was immediately added to each sample. The absorbance was assessed at 540 nm using a Tecan multiplate reader Infinite 1000 (Austria). The half-maximal inhibitory concentration (IC50) of each compound was calculated using Graph Pad Prism 3.0."}, "4T1": {"test_system": "4T1", "test": "Cytotoxicity assay (MTT), 4T1", "assay_type": "cell-based, mouse", "protocol": "as §1, §2"}, "[1]": {"test": "Cytotoxicity assay (MTT), H9C2", "assay_type": "cell-based, rat", "conditions": "rat, H9C2 cells (cardiomyoblasts); normal cell line; MTT, 48 h; mean ± S.D., 3 experiments", "protocol": "as §1, §2"}, "[2]": {"test": "Cytotoxicity assay (MTT), 3T3", "assay_type": "cell-based, mouse", "conditions": "mouse, NIH 3T3 cells (fibroblasts), normal cell line, mean ± S.D., 3 experiments", "protocol": "as §1, §2"}, "[3]": {"test": "Cytotoxicity assay (MTT), HEKa", "assay_type": "cell-based, human", "conditions": "human, HEKa cells (primary epidermal keratinocytes), normal cell line, mean ± S.D., 3 experiments", "protocol": "as §1, §2"}, "[4]": {"test": "Cytotoxicity assay (MTT), MDCK", "assay_type": "cell-based, Canine", "conditions": "dog, MDCK cells, normal cell line, mean ± S.D., 3 experiments", "protocol": "as §1, §2"}, "[5]": {"test": "Cytotoxicity assay (MTT), A7r5", "assay_type": "cell-based, rat", "conditions": "rat, A7r5 cells (vascular smooth muscle cells), normal cell line, mean ± S.D., 3 experiments", "protocol": "as §1, §2"}, "MCF-7 cells [6]": {"test_system": "MCF-7 cells", "test": "Fluorometric measurement of NMN level", "assay_type": "cell-based, human", "conditions": "2 μM, 10 min, vs control", "protocol": "For fluorometric measurements of NMN, a previously described method was used, with minor modifications. […] The cells were washed with PBS and then lysed by adding 200 μl of 1 M HClO4 to each well and incubating at 4 °C for 20 min. The cells were harvested by scraping and transferred to a tube. The extracts were neutralized with 100 μl of 2 M KOH for 5 min at room temperature and 50 μl of 0.1 M bicine (pH 7.4) was added. The samples were centrifuged at 14 000 × g for 10 min at 4 °C, and the supernatant was collected for further analysis. The protein concentration in each sample was determined using a Bio-Rad protein assay kit. […] The reaction was incubated for 2 min at 4 °C, after which 45 μl of 88% formic acid was added, and the samples were incubated for another 10 min at 37 °C on a shaker. The fluorescence was measured using a Tecan multiplate reader Infinite 1000 (Austria) with excitation at 382 nm and emission at […]."}, "MCF-7 cells [7]": {"test_system": "MCF-7 cells", "test": "NAD+/NADH assay kit measurement", "assay_type": "cell-based, human", "conditions": "2 μM, 10 min, vs control", "protocol": "The NAD^+/NADH ratio in the MCF-7 cells exposed to the test compounds (2 μM) for 10 min was measured using an NAD^+/NADH assay kit (Abcam, ab65348) according to the manufacturer's instructions."}, "NAMPT": {"biological_target": "T1, NAMPT (Homo sapiens, UniProt P43490)", "T1 construct": "endogenous in cells; host or cells: MCF-7", "T1 sequence (P43490 whole entry)": "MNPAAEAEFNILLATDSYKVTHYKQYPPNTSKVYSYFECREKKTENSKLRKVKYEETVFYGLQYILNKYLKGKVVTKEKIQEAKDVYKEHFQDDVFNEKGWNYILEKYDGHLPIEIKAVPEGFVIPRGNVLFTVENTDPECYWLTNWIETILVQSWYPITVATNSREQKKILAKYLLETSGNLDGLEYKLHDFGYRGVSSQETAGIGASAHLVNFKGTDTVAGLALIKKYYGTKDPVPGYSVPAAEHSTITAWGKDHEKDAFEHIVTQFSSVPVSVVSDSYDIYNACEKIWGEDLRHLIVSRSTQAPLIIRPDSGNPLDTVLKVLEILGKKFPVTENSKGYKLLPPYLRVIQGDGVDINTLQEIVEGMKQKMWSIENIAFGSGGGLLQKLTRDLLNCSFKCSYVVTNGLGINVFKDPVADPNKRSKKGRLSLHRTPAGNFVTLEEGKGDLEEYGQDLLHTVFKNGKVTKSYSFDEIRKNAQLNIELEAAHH", "test": "NAMPT activity assay in lysates of treated cells", "assay_type": "cell-based", "conditions": "MCF-7 cells, 2 µM, 4 h", "protocol": "MCF-7 cells (5 × 10^6 cells per well) were grown in a 6-well plate and then incubated with the test compounds (2 µM) for 4 h. The cells were harvested by scraping, washed with PBS and lysed with 50 mM Tris–HCl (pH 7.5), 150 mM NaCl, 1 mM DTT, 1 mM PMSF, 0.002 mg/ml leupeptin and pepstatin (2 × 10^6 cells in 100 µl buffer solution). After three freeze–thaw cycles at -80 °C, the cell extract was centrifuged at 15 000 × g for 30 min at 4 °C. The supernatant was collected, and the protein concentrations were determined using a Bio-Rad protein assay kit. The NAMPT enzyme reaction was performed as described previously. The enzymatic reaction mixture contained 50 mM Tris–HCl buffer (pH 7.5), 12 mM MgCl2, 2 mM DTT, 0.02% BSA, 2.5 mM ATP, 0.8 mM PRPP, and 50 μM nicotinamide. […] The concentrations of the NAMPT reaction product, nicotinamide mononucleotide (NMN), in the samples were determined using a described method. […] The fluorescence was measured using a Tecan multiplate reader Infinite 1000 (Austria) with excitation at 382 nm and emission at 445 nm. The NMN concentrations in the reaction mixtures were determined by comparison with NMN standards in the range of 0.16–20 μM. The NAMPT activity in the cell lysates is expressed as the concentration of NMN in μmol per mg protein per hour based on standard NMN readings."}, "permeabilized 4T1 cells": {"test_system": "permeabilized 4T1 cells", "test": "High-resolution fluorespirometry (respiration and H2O2 flux)", "assay_type": "cell-based, mouse", "protocol": "High-resolution fluorespirometry was performed using an Oxygraph-2 k system (OROBOROS INSTRUMENTS, Austria). All experiments were performed at 37 °C in MiR05 medium (110 mM sucrose, 60 mM K-lactobionate, 0.5 mM EGTA, 3 mM MgCl2, 20 mM taurine, 10 mM KH2PO4, 20 mM HEPES, pH 7.1 at 30 °C, and 0.1% BSA essentially fatty acid free). The medium was reoxygenated when the oxygen concentration dropped to 80 µM. H2O2 flux was simultaneously measured with respirometry in the O2k-Fluorometer using the H2O2-sensitive probe Ampliflu Red (AmR) as described. The H2O2/O flux ratio [%] was calculated as the H2O2 flux/(0.5 O2 flux).\nIn permeabilized 4T1 cells, pyruvate + malate (5 and 2 mM) or glutamate + malate (10 and 2 mM) were used to determine complex I (CI)-linked LEAK (L) respiration. ADP was added to a concentration of 5 mM to determine the oxidative phosphorylation-dependent respiration (OXPHOS state). Succinate (10 mM, complex II (CII) substrate) was then added to reconstitute convergent CI&II-linked respiration. Rotenone (0.5 µM, an inhibitor of complex I) and antimycin A (2.5 µM, an inhibitor of complex III) were added to determine the CII-linked OXPHOS capacity and residual oxygen consumption (ROX), respectively. Compound 6 was added to permeabilized cells after the addition of the respective substrates in the OXPHOS state (titration experiment) or in the LEAK state. In addition, compounds 3, 6 and 7 were tested at 1 µM in the OXPHOS coupling protocol in the LEAK state. The OXPHOS coupling efficiency was calculated as: 1-Resp.rateLEAKstate/Resp.rateOXPHOSstate\nThe substrate-dependent flux control factor was calculated as: 1-Resp.ratebeforeadditionofrespectivesubstrate/Resp.rateafteradditionofrespectivesubstrate"}, "[8]": {"conditions": "1 µM, pyruvate-dependent OXPHOS state"}, "[9]": {"conditions": "titration, pyruvate + malate and glutamate + malate, OXPHOS"}},
  "data": [
    {"smiles": "OC1(c2[se][n+]3ccccc3c2Br)CCCCC1.[Cl-]", "note": "[Compound 3, 3-bromo-2-(1-hydroxycyclohexyl)-[1,2]selenazolo[2,3-a]pyridinium chloride]", "values": [
      {"measurement": "IC50", "setting": "MCF-7", "value": "500 ± 20", "unit": "nM"},
      {"measurement": "IC50", "setting": "4T1; Mus musculus, 4T1, breast cancer cell line, MTT, 48 h, mean ± S.D., 3 experiments, read-out: Cytotoxicity, IC50, 4T1", "value": "44 ± 5", "unit": "nM"},
      {"measurement": "selectivity towards tumor cell lines", "setting": "4T1; comparing 4T1 to A7r5", "value": "> 42", "unit": "fold"},
      {"measurement": "IC50 at 48 h", "setting": "[1]", "value": "2200 ± 100", "unit": "nM"},
      {"measurement": "IC50 at 48 h", "setting": "[2]", "value": "390 ± 50", "unit": "nM"},
      {"measurement": "IC50 at 48 h", "setting": "[3]", "value": "2210 ± 20", "unit": "nM"},
      {"measurement": "IC50 at 48 h", "setting": "[4]", "value": "2910 ± 130", "unit": "nM"},
      {"measurement": "IC50 at 48 h", "setting": "[5]", "value": "1850 ± 220", "unit": "nM"},
      {"measurement": "decrease in NMN levels", "setting": "MCF-7 cells [6]", "value": 33, "unit": "%"},
      {"measurement": "decrease in NAD+ level", "setting": "MCF-7 cells [7]", "value": 59, "unit": "%"},
      {"measurement": "decrease in NAD+/NADH ratio", "setting": "MCF-7 cells [7]", "value": 38, "unit": "%"},
      {"measurement": "decrease in NADH level", "setting": "MCF-7 cells [7]", "value": 33, "unit": "%"},
      {"measurement": "reduction in NAMPT activity", "setting": "NAMPT", "value": "slight decreases"},
      {"measurement": "OXPHOS coupling efficiency", "setting": "permeabilized 4T1 cells; 1 µM", "value": "significant decrease"},
      {"measurement": "increase in H2O2/O ratio", "setting": "permeabilized 4T1 cells; [8]", "value": "immediate significant increases"},
      {"measurement": "increase in H2O2 production", "setting": "permeabilized 4T1 cells; [8]", "value": "immediate significant increases"},
      {"measurement": "mitochondrial function in the CII-linked OXPHOS state", "setting": "permeabilized 4T1 cells; titration", "value": "no significant changes"},
      {"measurement": "H2O2 production with complex I (NADH-linked) substrates", "setting": "permeabilized 4T1 cells; [9]", "value": "increased"},
      {"measurement": "mitochondrial respiration rate with complex I (NADH-linked) substrates", "setting": "permeabilized 4T1 cells; [9]", "value": "inhibited"}
    ]}
  ]
}
